Patent publication US9556181B2, “Substituted pyrazolopyrimidinylamino-indazoles” (BAYER PHARMA AKTIENGESELLSCHAFT, priority 2013, dated 2017)

Target: human full-length MKNK1 (Homo sapiens (Human), UniProt Q9BUB5, T344D)
Assay: MKNK1 kinase high ATP assay (TR-FRET)
Assay type: biochemical
Conditions: high ATP (2 mM final), 15 min preincubation with enzyme
Protocol: MKNK1 Kinase High ATP Assay
MKNK1-inhibitory activity at high ATP of compounds of the present invention after their preincubation with MKNK1 was quantified employing the TR-FRET-based MKNK1 high ATP assay as described in the following paragraphs.
A recombinant fusion protein of Glutathione-S-Transferase (GST, N-terminally) and human full-length MKNK1 (amino acids 1-424 and T344D of accession number BAA 19885.1), expressed in insect cells using baculovirus expression system and purified via glutathione sepharose affinity chromatography, was purchased from Carna Biosciences (product no 02-145) and used as enzyme. As substrate for the kinase reaction the biotinylated peptide biotin-Ahx-IKKRKLTRRKSLKG (C-terminus in amide form) was used, which can be purchased e.g. from the company Biosyntan (Berlin-Buch, Germany).
For the assay 50 nL of a 100 fold concentrated solution of the test compound in DMSO was pipetted into a black low volume 384 well microtiter plate (Greiner Bio-One, Frickenhausen, Germany), 2 μL of a solution of MKNK1 in aqueous assay buffer [50 mM HEPES pH 7.5, 5 mM MgCl2, 1.0 mM dithiothreitol, 0.005% (v/v) Nonidet-P40 (Sigma)] was added and the mixture was incubated for 15 min at 22° C. to allow pre-binding of the test compounds to the enzyme before the start of the kinase reaction. Then the kinase reaction was started by the addition of 3 μL of a solution of adenosine-tri-phosphate (ATP, 3.3 mM=>final conc. in the 5 μL assay volume is 2 mM) and substrate (0.1 μM=>final conc. in the 5 μL assay volume is 0.06 μM) in assay buffer and the resulting mixture was incubated for a reaction time of 30 min at 22° C. The concentration of MKNK1 was adjusted depending of the activity of the enzyme lot and was chosen appropriate to have the assay in the linear range, typical concentrations were in the range of 0.003 μg/mL. The reaction was stopped by the addition of 5 μL of a solution of TR-FRET detection reagents (5 nM streptavidine-XL665 [Cisbio Bioassays, Codolet, France] and 1 nM anti-ribosomal protein S6 (pSer236)-antibody from Invitrogen [#44921G] and 1 nM LANCE EU-W1024 labeled ProteinG [Perkin-Elmer, product no. AD0071]) in an aqueous EDTA-solution (100 mM EDTA, 0.1% (w/v) bovine serum albumin in 50 mM HEPES pH 7.5).
The resulting mixture was incubated for 1 h at 22° C. to allow the formation of complex between the phosphorylated biotinylated peptide and the detection reagents. Subsequently the amount of phosphorylated substrate was evaluated by measurement of the resonance energy transfer from the Eu-chelate to the streptavidine-XL. Therefore, the fluorescence emissions at 620 nm and 665 nm after excitation at 350 nm were measured in a TR-FRET reader, e.g. a Rubystar (BMG Labtechnologies, Offenburg, Germany) or a Viewlux (Perkin-Elmer). The ratio of the emissions at 665 nm and at […] was taken as the measure for the amount of phosphorylated substrate. The data were normalised (enzyme reaction without inhibitor=0% inhibition, all other assay components but no enzyme=100% inhibition).

human full-length MKNK1, sequence (Q9BUB5 other isoform, or with tags, fused parts or gaps T344D): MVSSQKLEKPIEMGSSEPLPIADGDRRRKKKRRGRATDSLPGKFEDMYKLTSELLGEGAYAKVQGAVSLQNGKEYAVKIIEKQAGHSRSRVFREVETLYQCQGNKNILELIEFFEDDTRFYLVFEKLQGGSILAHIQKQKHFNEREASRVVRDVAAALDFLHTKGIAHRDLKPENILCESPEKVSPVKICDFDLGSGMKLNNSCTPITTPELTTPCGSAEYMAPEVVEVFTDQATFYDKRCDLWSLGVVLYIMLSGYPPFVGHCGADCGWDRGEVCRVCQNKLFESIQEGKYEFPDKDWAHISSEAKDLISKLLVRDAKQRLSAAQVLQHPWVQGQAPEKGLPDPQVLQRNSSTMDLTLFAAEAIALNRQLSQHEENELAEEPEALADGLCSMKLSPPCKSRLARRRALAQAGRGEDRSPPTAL

| Structure (SMILES) | IC50 [nM] |
| --- | --- |
| COc1cc2[nH]ncc2cc1Nc1ncnc2[nH]nc(-c3ccncc3)c12 [Example 16, N-(6-Methoxy-1H-indazol-5-yl)-3-(pyridin-4-yl)-1H-pyrazolo[3,4-d]pyrimidin-4-amine] | 2 |
| Fc1cc2[nH]ncc2cc1Nc1ncnc2[nH]nc(Br)c12 [Example 5, 3-Bromo-N-(6-fluoro-1H-indazol-5-yl)-1H-pyrazolo[3,4-d]pyrimidin-4-amine] | 12 |
| CC(C)Oc1cc2[nH]ncc2cc1Nc1ncnc2[nH]nc(Br)c12 [Example 17, 3-Bromo-N-(6-isopropoxy-1H-indazol-5-yl)-1H-pyrazolo[3,4-d]pyrimidin-4-amine] | 1 |
| Fc1ccc(-c2n[nH]c3ncnc(Nc4cc5cn[nH]c5cc4F)c23)cc1 [Example 14, N-(6-Fluoro-1H-indazol-5-yl)-3-(4-fluorophenyl)-1H-pyrazolo[3,4-d]pyrimidin-4-amine] | 12 |
| COc1cc2[nH]ncc2cc1Nc1ncnc2[nH]nc(Br)c12 [Example 4, 3-Bromo-N-(6-methoxy-1H-indazol-5-yl)-1H-pyrazolo[3,4-d]pyrimidin-4-amine] | 1 |
| Brc1n[nH]c2ncnc(Nc3ccc4[nH]ncc4c3)c12 [Example 6, 3-Bromo-N-(1H-indazol-5-yl)-1H-pyrazolo[3,4-d]pyrimidin-4-amine] | 14 |
| CC(C)Oc1cc2[nH]ncc2cc1Nc1ncnc2[nH]nc(-c3ccccc3)c12 [Example 18, N-(6-Isopropoxy-1H-indazol-5-yl)-3-phenyl-1H-pyrazolo[3,4-d]pyrimidin-4-amine] | 19 |
| c1cncc(-c2n[nH]c3ncnc(Nc4ccc5[nH]ncc5c4)c23)c1 [Example 9, N-(1H-Indazol-5-yl)-3-(pyridin-3-yl)-1H-pyrazolo[3,4-d]pyrimidin-4-amine] | 8 |
| CC(C)Oc1cc2[nH]ncc2cc1Nc1ncnc2[nH]nc(-c3ccc(F)cc3)c12 [Example 19, 3-(4-Fluorophenyl)-N-(6-isopropoxy-1H-indazol-5-yl)-1H-pyrazolo[3,4-d]pyrimidin-4-amine] | 26 |
| COc1cc2[nH]ncc2cc1Nc1ncnc2[nH]nc(-c3ccc(F)cc3)c12 [Example 13, 3-(4-Fluorophenyl)-N-(6-methoxy-1H-indazol-5-yl)-1H-pyrazolo[3,4-d]pyrimidin-4-amine] | 2 |
| Fc1cc2[nH]ncc2cc1Nc1ncnc2[nH]nc(-c3ccccc3)c12 [Example 8, N-(6-fluoro-1H-indazol-5-yl)-3-phenyl-1H-pyrazolo[3,4-d]pyrimidin-4-amine] | 15 |
| c1ccc(-c2n[nH]c3ncnc(Nc4ccc5[nH]ncc5c4)c23)cc1 [Example 15, N-(1H-Indazol-5-yl)-3-phenyl-1H-pyrazolo[3,4-d]pyrimidin-4-amine] | 26 |
| Fc1ccc(-c2n[nH]c3ncnc(Nc4ccc5[nH]ncc5c4)c23)cc1 [Example 12, 3-(4-Fluorophenyl)-N-(1H-indazol-5-yl)-1H-pyrazolo[3,4-d]pyrimidin-4-amine] | 12 |
| CC(C)Oc1cc2[nH]ncc2cc1Nc1ncnc2[nH]nc(-c3cccnc3)c12 [Example 20, N-(6-Isopropoxy-1H-indazol-5-yl)-3-(pyridin-3-yl)-1H-pyrazolo[3,4-d]pyrimidin-4-amine] | 63 |
| COc1cc2[nH]ncc2cc1Nc1ncnc2[nH]nc(-c3ccccc3)c12 [Example 7, N-(6-methoxy-1H-indazol-5-yl)-3-phenyl-1H-pyrazolo[3,4-d]pyrimidin-4-amine] | 3 |
| c1nc(Nc2ccc3[nH]ncc3c2)c2cn[nH]c2n1 [Example 1, N-(1H-Indazol-5-yl)-1H-pyrazolo[3,4-d]pyrimidin-4-amine] | 117 |
| CC(C)Oc1cc2[nH]ncc2cc1Nc1ncnc2[nH]nc(-c3ccncc3)c12 [Example 21, N-(6-Isopropoxy-1H-indazol-5-yl)-3-(pyridin-4-yl)-1H-pyrazolo[3,4-d]pyrimidin-4-amine] | 27 |
| Fc1cc2[nH]ncc2cc1Nc1ncnc2[nH]nc(-c3cccnc3)c12 [Example 11, N-(6-fluoro-1H-indazol-5-yl)-3-(pyridin-3-yl)-1H-pyrazolo[3,4-d]pyrimidin-4-amine] | 8 |
| CC(C)Oc1cc2[nH]ncc2cc1Nc1ncnc2[nH]ncc12 [Example 3, N-[6-(Propan-2-yloxy)-1H-indazol-5-yl]-1H-pyrazolo[3,4-d]pyrimidin-4-amine] | 531 |
| COc1cc2[nH]ncc2cc1Nc1ncnc2[nH]nc(-c3cccnc3)c12 [Example 10, N-(6-Methoxy-1H-indazol-5-yl)-3-(pyridin-3-yl)-1H-pyrazolo[3,4-d]pyrimidin-4-amine] | 6 |
